In PubChem BioAssay (NCI):
Where “and” joins values, the source holds several entries; their conditions need not be identical. Identical values can stand only once.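 Grown in 96-well plates, cells were treated for 48 hours with each compound at five concentrations. Insufficient inhibition: endpoint recorded as highest concentration tested. GI50: concentration for 50% inhibition of growth. TGI: total growth inhibition.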

Assays:
Test in all cases: NCI anticancer screen, dose series, 48 h
[1] = test system: SK-MEL-28 melanoma
[2] = test system: NCI-H522 lung
[3] = test system: HOP-92 NSCLC
[4] = test system: COLO 205 colon
[5] = test system: NCI/ADR-RES ovarian
[6] = test system: T-47D breast
[7] = test system: OVCAR-3 ovarian
[8] = test system: SK-MEL-5 melanoma
[9] = test system: SNB-19 CNS
[10] = test system: MCF7 breast
[11] = test system: OVCAR-8 ovarian
[12] = test system: SK-OV-3 ovarian
[13] = test system: RPMI-8226 leukemia
[14] = test system: SR leukemia

## CCOC(=O)CCC(NC(=O)c1ccc(N2CCN(c3c(C)nc(N)nc3N)CC2)cc1)C(=O)OCC (centres undefined)
[1]
  TGI: > 47.4 µM
[2]
  TGI: > 100 µM
[3]
  TGI: > 100 µM
[4]
  TGI: > 100 µM
[5]
  TGI: > 100 µM
[6]
  TGI: > 100 µM
[7]
  TGI: > 100 µM
[8]
  TGI: 19.6 µM
[9]
  TGI: > 24.7 µM
[10]
  TGI: > 100 µM
[11]
  TGI: > 100 µM
[12]
  TGI: > 100 µM
[13]
  TGI: 6.94 µM

## C[C@H](O)C1CC(Cn2nnc3c(N)ncnc32)C1(C)C (some centres undefined)
[1]
  TGI: > 100 µM
[3]
  TGI: > 100 µM
[5]
  TGI: > 100 µM
[6]
  TGI: > 100 µM
[7]
  TGI: > 100 µM
[8]
  TGI: > 100 µM
[9]
  TGI: > 100 µM
[10]
  TGI: > 100 µM
[12]
  TGI: > 100 µM

## N#CC1(C#N)NC(c2ccsc2)C(C#N)(C#N)NC1c1ccsc1 (centres undefined)
[1]
  TGI: > 100 µM
[2]
  TGI: > 100 µM
[3]
  TGI: > 100 µM
[14]
  TGI: > 100 µM
[4]
  TGI: > 100 µM
[5]
  TGI: > 100 µM
[7]
  TGI: > 100 µM
[8]
  TGI: > 100 µM
[9]
  TGI: > 100 µM
[10]
  TGI: > 100 µM
[11]
  TGI: > 100 µM
[12]
  TGI: > 100 µM
[13]
  TGI: > 100 µM

## COC(=O)/N=[N+](\[O-])C(c1ccc(OC)cc1)C1CCCCC1 (centres undefined)
[1]
  TGI: 38.7 µM
[2]
  TGI: 5.1 µM
[3]
  TGI: 36.8 µM
[4]
  TGI: 3.36 µM
[5]
  TGI: 15.8 µM
[6]
  TGI: 40.3 µM
[7]
  TGI: 33.2 µM
[8]
  TGI: > 41.4 µM
[9]
  TGI: > 54.2 µM
[10]
  TGI: > 100 µM
[11]
  TGI: 38.3 µM
[12]
  TGI: 18.2 µM
[13]
  TGI: 4.55 µM

## CCN(CC)C(=S)SS(=O)(=O)c1ccc([N+](=O)[O-])cc1
[1]
  GI50: 19 µM
  TGI: 38.3 µM
[14]
  TGI: 54.5 µM
[4]
  TGI: > 100 µM
[5]
  GI50: 48.3 µM
  TGI: > 100 µM
[6]
  TGI: > 100 µM
[7]
  GI50: 35.4 µM
  TGI: > 100 µM
[8]
  TGI: 29.2 µM
[9]
  TGI: > 100 µM
[11]
  TGI: 42.5 µM
[12]
  TGI: > 100 µM
[13]
  TGI: 48.8 µM

## Nc1nc(Cl)cc(Nc2cc(Cl)cc(Cl)c2)n1
[2]
  TGI: 24.3 µM
[3]
  TGI: 40.3 µM
[4]
  TGI: 41.4 µM
[5]
  TGI: 44 µM
[6]
  TGI: 98.9 µM
[7]
  TGI: 48.6 µM
[8]
  TGI: 33.9 µM
[9]
  TGI: 47.5 µM
[10]
  TGI: 41.6 µM
[11]
  TGI: 28.3 µM
[12]
  TGI: 35.8 µM
[13]
  TGI: 66.3 µM

## CCOC(=O)C(NC(=O)Nc1ccc(Cl)c(Cl)c1)C(F)(F)F (centres undefined)
[1]
  TGI: > 100 µM
[14]
  TGI: > 100 µM
[4]
  TGI: > 100 µM
[5]
  TGI: > 100 µM
[6]
  TGI: > 100 µM
[8]
  TGI: > 100 µM
[9]
  TGI: > 100 µM
[11]
  TGI: > 100 µM
[12]
  TGI: > 100 µM
[13]
  TGI: > 100 µM

## CC(C)=CCSC1CC2C(CC1(C)O)C2(C)C (centres undefined)
[1]
  TGI: 31.3 µM and 30.7 µM
[2]
  GI50: 13.3 µM and 4.38 µM
  TGI: 26.9 µM and 18.8 µM
[3]
  TGI: 30.4 µM and 27 µM
[4]
  TGI: 32.5 µM and 30.8 µM
[7]
  TGI: 31.2 µM and 23.6 µM
[8]
  GI50: 14.7 µM and 6.59 µM
  TGI: 28.5 µM and 20.1 µM
[9]
  TGI: 34.2 µM and 31.8 µM
[11]
  TGI: 34.3 µM and 27.1 µM
[12]
  TGI: 28.2 µM and 29.7 µM
[13]
  TGI: 48.5 µM and 61.6 µM

## COc1ccc(CC2NC(=O)/C=C/CC(C(C)C3OC3c3ccccc3)OC(=O)C(CC(C)C)OC(=O)C(C)CNC2=O)cc1Cl (centres undefined)
[1]
  TGI: > 0.1 µM
[2]
  TGI: > 0.1 µM
[3]
  TGI: > 0.1 µM
[4]
  TGI: 2.12e-05 µM
[7]
  TGI: 0.000584 µM
[8]
  TGI: 0.000657 µM
[9]
  TGI: > 0.1 µM
[10]
  TGI: > 0.1 µM
[11]
  TGI: > 0.1 µM
[12]
  TGI: > 0.1 µM
[13]
  TGI: > 0.1 µM

## COc1cc2c(c(OC)c1OC)-c1ccc(SC)cc1[C@H](OC(=O)c1ccccc1)CC2
[1]
  TGI: > 100 µM
[3]
  TGI: > 100 µM
[14]
  TGI: > 100 µM
[4]
  TGI: 0.446 µM
[6]
  TGI: > 100 µM
[7]
  TGI: > 100 µM
[8]
  TGI: 1.21 µM
[10]
  TGI: > 33.2 µM
[11]
  TGI: > 100 µM
[12]
  TGI: > 100 µM

## Cc1cccc(NC(=S)Nc2ccccc2Cl)n1
[1]
  TGI: > 100 µM
[14]
  TGI: > 100 µM
[4]
  TGI: > 100 µM
[5]
  TGI: > 100 µM
[6]
  TGI: > 100 µM
[7]
  TGI: > 100 µM
[8]
  TGI: > 100 µM
[9]
  TGI: 97.5 µM
[10]
  TGI: > 100 µM
[11]
  TGI: 73.7 µM
[12]
  TGI: 51.8 µM
[13]
  TGI: > 100 µM

## O=c1[nH]nc(Cc2ccccc2)n1Nc1ccccc1
[1]
  TGI: > 100 µM
[2]
  TGI: > 100 µM
[14]
  TGI: > 100 µM
[4]
  TGI: > 100 µM
[5]
  TGI: > 100 µM
[7]
  TGI: > 100 µM
[8]
  TGI: > 100 µM
[10]
  TGI: > 100 µM
[11]
  TGI: > 100 µM
[13]
  TGI: > 100 µM

## CC[C@H]1OC([C@H](O)C/C=C\C#C[Si](C)(C)C)C/C=C\C[C@H]1O[Si](C)(C)C(C)(C)C (some centres undefined)
[1]
  TGI: > 100 µM
[2]
  TGI: > 100 µM
[14]
  TGI: > 100 µM
[4]
  TGI: > 100 µM
[5]
  TGI: > 100 µM
[6]
  TGI: > 100 µM
[7]
  TGI: > 100 µM
[8]
  TGI: > 100 µM
[9]
  TGI: > 100 µM
[10]
  TGI: > 100 µM
[11]
  TGI: > 100 µM
[12]
  TGI: > 100 µM
[13]
  TGI: > 100 µM

## COC(=O)c1c(C)cccc1/C=C1\Cc2cc(C)cc(C)c2C1=O
[1]
  TGI: > 100 µM
[2]
  TGI: > 100 µM
[3]
  TGI: 39.4 µM
[14]
  TGI: > 100 µM
[6]
  TGI: > 100 µM
[7]
  TGI: > 100 µM
[8]
  TGI: > 100 µM
[9]
  TGI: > 100 µM
[10]
  TGI: > 100 µM
[11]
  TGI: > 100 µM
[13]
  TGI: > 100 µM

## Cc1ccc2c(n1)C(=O)c1ccccc1C2=O
[1]
  TGI: > 100 µM
[2]
  TGI: 52.4 µM
[3]
  TGI: > 100 µM
[4]
  TGI: 37 µM
[5]
  TGI: 60.1 µM
[6]
  TGI: > 85 µM
[7]
  TGI: 16.5 µM
[8]
  TGI: 19.7 µM
[9]
  TGI: > 87.9 µM
[10]
  TGI: 38.8 µM
[11]
  TGI: 74.8 µM
[12]
  TGI: > 100 µM
[13]
  TGI: > 95.8 µM

## CC(C)CCn1c(=O)c2c(=O)[nH][nH]c2c2ccccc21
[1]
  TGI: > 100 µM
[2]
  TGI: > 100 µM
[3]
  TGI: > 100 µM
[14]
  TGI: > 100 µM
[4]
  TGI: > 100 µM
[5]
  TGI: > 100 µM
[7]
  TGI: > 100 µM
[8]
  TGI: > 100 µM
[9]
  TGI: > 100 µM
[10]
  TGI: > 100 µM
[11]
  TGI: > 100 µM
[13]
  TGI: > 100 µM

## CN(CCc1ccc(N)cc1)[C@H]1CCCC[C@H]1N1CCCC1
[1]
  TGI: > 100 µM
[2]
  TGI: > 100 µM
[3]
  TGI: > 100 µM
[4]
  TGI: > 100 µM
[5]
  TGI: > 100 µM
[6]
  TGI: > 100 µM
[7]
  TGI: > 100 µM
[8]
  TGI: > 100 µM
[9]
  TGI: > 100 µM
[10]
  TGI: > 100 µM
[11]
  TGI: > 100 µM
[12]
  TGI: > 100 µM
[13]
  TGI: > 100 µM

## COC(=O)/C=c1/c2ccccc2n2nc3ccccc3c12
[1]
  TGI: > 100 µM
[2]
  TGI: > 100 µM
[14]
  TGI: 17.1 µM
[4]
  TGI: > 100 µM
[5]
  TGI: > 100 µM
[6]
  TGI: > 100 µM
[7]
  TGI: > 100 µM
[8]
  TGI: > 100 µM
[9]
  TGI: > 100 µM
[10]
  TGI: > 100 µM
[11]
  TGI: > 100 µM
[12]
  TGI: 61.3 µM
[13]
  TGI: > 100 µM
